The values that follow come from patent US11708348B2, “Protease inhibitors for treatment of coronavirus infections” (The Scripps Research Institute, priority 2021, dated 2023).

Molecules are shown by their SMILES. Bounds are passed on as bounds.

The first experiment has as its system SARS-CoV-2 strain USA-WA1/2020. Put plainly: microbe, parasite or virus in culture. In kind it is cell-based. The note with it: Severe acute respiratory syndrome coronavirus 2, HeLa-ACE2, 24 h, HeLa-ACE2 cells, SARS-CoV-2 infection, 24 h; bound printed in cell; read-out: EC50, uM (Hela).
For the compound `Cn1cncc1C(O)C(=O)N1CC2(CC2)C[C@H]1C(=O)N[C@@H](C[C@@H]1CCNC1=O)C(=O)COC(F)(F)F` (stereo partly drawn) [Compound 383, (6S)-5-(2-hydroxy-2-(1-methyl-1H-imidazol-5-yl)acetyl)-N-((S)-3-oxo-1-((S)-2-oxopyrrolidin-3-yl)-4-(trifluoromethoxy)butan-2-yl)-5-azaspiro[2.4]heptane-6-carboxamide], the EC50 is > 1 µM.

The same experiment, now with this note: Severe acute respiratory syndrome coronavirus 2, HeLa-ACE2, 24 h, HeLa-ACE2 cells, SARS-CoV-2 infection, 24 h; class symbols; read-out: EC50, uM (Hela).
Regarding `CC(C)C[C@H](NC(=O)OCC1CCCC1)C(=O)N[C@@H](C[C@@H]1CCNC1=O)C(=O)COc1c(F)c(F)cc(F)c1F` [Compound 137, cyclopentylmethyl ((S)-4-methyl-1-oxo-1-(((S)-3-oxo-1-((S)-2-oxopyrrolidin-3-yl)-4-(2,3,5,6-tetrafluorophenoxy)butan-2-yl)amino)pentan-2-yl)carbamate], the EC50 lay within 0.5 to 1 µM. As for `CC(C)CC(C)(O)C(=O)N1CC2(CC2)C[C@H]1C(=O)N[C@@H](C[C@@H]1CCNC1=O)C(=O)COC(F)(F)F` (stereo partly drawn) [Compound 360, (6S)-5-(2-hydroxy-2,4-dimethylpentanoyl)-N-((S)-3-oxo-1-((S)-2-oxopyrrolidin-3-yl)-4-(trifluoromethoxy)butan-2-yl)-5-azaspiro[2.4]-heptane-6-carboxamide], the EC50 is < 0.05 µM. Turning to `O=C(N[C@@H](C[C@@H]1CCNC1=O)C(=O)COC(F)(F)F)C(CC1CCOCC1)NC(=O)[C@H]1CCCO1` (stereo partly drawn) [Compound 298, (2R)-N-(1-oxo-1-(((S)-3-oxo-1-((S)-2-oxopyrrolidin-3-yl)-4-(trifluoromethoxy)butan-2-yl)amino)-3-(tetrahydro-2H-pyran-4-yl)propan-2-yl)tetrahydrofuran-2-carboxamide], the EC50 lay in the range of 0.5 to 1 µM. In the case of `CC(C)C[C@H](NC(=O)C1CCC(=O)O1)C(=O)N[C@@H](C[C@@H]1CCNC1=O)C(=O)COC(F)(F)F` (stereo partly drawn) [Compound 213, N-((S)-4-methyl-1-oxo-1-(((S)-3-oxo-1-((S)-2-oxopyrrolidin-3-yl)-4-(trifluoromethoxy)butan-2-yl)amino)pentan-2-yl)-5-oxotetrahydrofuran-2-carboxamide], the EC50 was in the range of 0.5 to 1 µM. As for `CC(C)C[C@H](NC(=O)C(=O)NC12CCC(F)(CC1)CC2)C(=O)N[C@@H](C[C@@H]1CCNC1=O)C(=O)COC(F)(F)F` [Compound 251, N1-(4-fluorobicyclo-[2.2.2]octan-1-yl)-N2-((S)-4-methyl-1-oxo-1-(((S)-3-oxo-1-((S)-2-oxopyrrolidin-3-yl)-4-(trifluoromethoxy)butan-2-yl)amino)pentan-2-yl)oxalamide], the EC50 is < 0.05 µM. Take `CC(C)C[C@H](NC(=O)C(=O)NC1CC1)C(=O)N[C@@H](C[C@@H]1CCNC1=O)C(=O)COC(F)(F)F` [Compound 174, N1-cycl opropyl-N2-((S)-4-methyl-1-oxo-1-(((S)-3-oxo-1-((S)-2-oxopyrrolidin-3-yl)-4-(trifluoromethoxy)butan-2-yl)amino)pentan-2-yl)oxalamide]: the half-maximal effective concentration (EC50) was < 0.05 µM. `Cc1cc(F)ccc1NC(=O)C(=O)N[C@@H](CC(C)C)C(=O)N[C@@H](C[C@@H]1CCNC1=O)C(=O)COc1c(F)c(F)cc(F)c1F` [Compound 74, N1-(4-fluoro-2-methylphenyl)-N2-((S)-4-methyl-1-oxo-1-(((S)-3-oxo-1-((S)-2-oxopyrrolidin-3-yl)-4-(2,3,5,6-tetrafluorophenoxy)butan-2-yl)amino)pentan-2-yl)oxalamide]: the EC50 was 0.2 to 0.5 µM.

As to `Cc1cccc(NC(=O)C(=O)N[C@@H](CC(C)C)C(=O)N[C@@H](C[C@@H]2CCNC2=O)C(=O)COc2c(F)c(F)cc(F)c2F)c1C` [Compound 65, N1-(2,3-dimethylphenyl)-N2-((S)-4-methyl-1-oxo-1-(((S)-3-oxo-1-((S)-2-oxopyrrolidin-3-yl)-4-(2,3,5,6-tetrafluorophenoxy)butan-2-yl)amino)pentan-2-yl)oxalamide], the EC50 is < 0.05 µM.

The experiment is the same for the next values; noted with them: Severe acute respiratory syndrome coronavirus 2, HeLa-ACE2, 24 h, HeLa-ACE2 cells, SARS-CoV-2 infection, 24 h; read-out: EC50, uM (Hela).
For `Cc1ccccc1NC(=O)C(=O)N[C@@H](CC(C)(C)C)C(=O)N[C@@H](C[C@@H]1CCNC1=O)C(=O)COC(F)(F)F` [Compound 504, N1-((S)-4,4-dimethyl-1-oxo-1-(((S)-3-oxo-1-((S)-2-oxopyrrolidin-3-yl)-4-(trifluoromethoxy)butan-2-yl)amino)pentan-2-yl)-N2-(o-tolyl)oxalamide], the EC50 was < 0.05 µM. The same measure, in the same setting: the same measure for `O=C1NCC[C@H]1C[C@H](NC(=O)[C@@H]1CC2(CC2)CN1C(=O)c1cc(F)cc(F)c1)C(=O)COC(F)(F)F` [Compound 699, (S)-5-(3,5-difluorobenzoyl)-N-((S)-3-oxo-l-((S)-2-oxopyrrolidin-3-yl)-4-(trifluoromethoxy)butan-2-yl)-5-azaspiro[2.4]heptane-6-carboxamide]: 0.05 to 0.2 µM. Regarding `C[C@H](C(=O)N1CC2(CC2)C[C@H]1C(=O)N[C@@H](C[C@@H]1CCNC1=O)C(=O)COC(F)(F)F)c1ccccc1` [Compound 628, (S)-N-((S)-3-oxo-1-((S)-2-oxopyrrolidin-3-yl)-4-(trifluoromethoxy)butan-2-yl)-5-((S)-2-phenylpropanoyl)-5-azaspiro[2.4]heptane-6-carboxamide], the EC50 fell in the range of 0.05 to 0.2 µM. `CC(C)C[C@H](NC(=O)c1cc(-c2ccccn2)on1)C(=O)N[C@@H](C[C@@H]1CCNC1=O)C(=O)COC(F)(F)F` [Compound 464, N-((S)-4-methyl-1-oxo-1-(((S)-3-oxo-1-((S)-2-oxopyrrolidin-3-yl)-4-(trifluoromethoxy)butan-2-yl)amino)pentan-2-yl)-5-(pyridin-2-yl)isoxazole-3-carboxamide]: the EC50 is < 0.05 µM.

On to `CC1(C[C@H](NC(=O)C(=O)NC2(C)CC2)C(=O)N[C@@H](C[C@@H]2CCNC2=O)C(=O)COC(F)(F)F)CC1` [Compound 577, Nl-(l-methylcyclo-propyl)-N2-(3-(1-methylcyclopropyl)-1-oxo-1-(((S)-3-oxo-1-((S)-2-oxopyrrolidin-3-yl)-4-(trifluoromethoxy)butan-2-yl)amino)propan-2-yl)oxalamide], for which the EC50 is < 0.05 µM. As to `C[C@@](O)(C(=O)N1CC2(CC2)C[C@H]1C(=O)N[C@@H](C[C@@H]1CCNC1=O)C(=O)COC(F)(F)F)C(F)(F)F` [Compound 722, (S)-N-((S)-3-oxo-1-((S)-2-oxopyrrolidin-3-yl)-4-(trifluoromethoxy)butan-2-yl)-5-((R)-3,3,3-trifluoro-2-hydroxy-2-methylpropanoyl)-5-azaspiro[2.4]heptane-6-carboxamide], the EC50 fell in the range of 0.05 to 0.2 µM.

Consider `O=C(NCC(F)(F)F)C(=O)N1CC2(CC2)C[C@H]1C(=O)N[C@@H](C[C@@H]1CCNC1=O)C(=O)COC(F)(F)F` [Compound 570], for which the EC50 was 0.05 to 0.2 µM.

`Cn1ccc(NC(=O)C(=O)N2C[C@H]3[C@@H]([C@H]2C(=O)N[C@@H](C[C@@H]2CCNC2=O)C(=O)COC(F)(F)F)C3(C)C)n1` [Compound 535, (1R,2S,5S)-6,6-dimethyl-3-(2-((l-methyl-1H-pyrazol-3-yl)amino)-2-oxoacetyl)-N-((S)-3-oxo-1-((S)-2-oxopyrrolidin-3-yl)-4-(trifluoromethoxy)butan-2-yl)-3-azabicyclo-[3.1.0]hexane-2-carboxamide]: the EC50 lay in the range of 0.05 to 0.2 µM.

One may read the EC50 as the concentration at which the effect is half-maximal.
